For data set [1] the following is noted: instrument: DT, single field.
For data set [2] the following is noted: instrument: DT, single field, calibrated with Agilent tune mix (Agilent).
For data set [3] the following is noted: instrument: DT, stepped-field.
For data set [4] the following is noted: [M+H]+; instrument: TW; calibrated with phosphatidylcholines (ESI+) and phosphatidylethanolamines (ESI-).

Values joined by “and” are separate entries in the source; they are usually repeats but may differ in a detail not shown here. Equal entries are not always repeated.

For `CCCC/C=C\C/C=C\CCCCCCCC(=O)O[C@@H](CO)COC(=O)CCCCCCCCCCCCCCCC` [DG(34:2)], the “collision cross section (N2)” value in data set [1] ([M+NH4]+) was 257.59 Å² and 259.54 Å²; in data set [2] ([M+NH4]+), 257.9 Å².
In the case of `C=CCCCCCCCCCCCCC(=O)O[C@H](COC(=O)CCCCCCCCCCCCCCC)COP(=O)([O-])OCC[N+](C)(C)C` [PC(31:1)], the figures for the “collision cross section (N2)” value in data set [3] ([M+K]+) and in data set [1] ([M+H]+) were 286.5 Å² and 276.07 Å², respectively.
`CCCCCC/C=C\CCCCCCCCCC(=O)OC[C@H](COP(=O)([O-])OCC[N+](C)(C)C)OC(=O)CCCCCCCCCCCCC` [PC(32:1)]: the “collision cross section (N2)” value in data set [1] ([M+H]+) was 279.13 Å²; in data set [2] ([M+Na]+) it was 282.6 Å²; in data set [4], 278 Å².
Take `CCCCCCCCCCCCC=CC[C@@H](O)[C@H](COP(=O)([O-])OCC[N+](C)(C)C)NC(=O)CCCCCCCCCCCCCCCC` [SM(35:1)]: the “collision cross section (N2)” value in data set [3] ([M+Na]+) is recorded as 289.1 Å²; in data set [1] ([M+H]+), 284.31 Å²; in data set [2] ([M+H]+) it was 285.1 Å²; in data set [2] ([M+Na]+), 285.6 Å².
Take `CCCCCCCCCCCCC=CC[C@@H](O)[C@H](COP(=O)([O-])OCC[N+](C)(C)C)NC(=O)CCCCCCCCCCCCCCCCCCC` [SM(38:1)]: the figures for the “collision cross section (N2)” value in data set [3] ([M+Na]+), in data set [1] ([M+H]+) and in data set [2] ([M+HCOO]-) were 298.5 Å², 293.47 Å² and 292.1 Å², respectively.
Take `CCCCCCCCCCCCC=CC[C@@H](O)[C@H](COP(=O)([O-])OCC[N+](C)(C)C)NC(=O)CCCCCCCCCCCCCCCCCCCCCC` [SM(41:1)]: the “collision cross section (N2)” value was determined as 306.3 Å² in data set [3] ([M+Na]+); 302.5 Å² in data set [1] ([M+H]+); 300.3 Å² in data set [2] ([M+HCOO]-); 302.9 Å² in data set [2] ([M+H]+); 302.8 Å² in data set [2] ([M+Na]+).
Turning to `CCCCCCCCCCCCC=CC[C@@H](O)[C@H](COP(=O)([O-])OCC[N+](C)(C)C)NC(=O)CCCCCCCCCCCCCCCCCCCCCCC` [SM(42:1)], the “collision cross section (N2)” value in data set [3] ([M+Na]+) is recorded as 309.3 Å²; in data set [1] ([M+H]+) it was 304.96 Å²; in data set [2] ([M+HCOO]-) it was 303 Å².
For the compound `CCCCCCCCCCCCC=CC[C@@H](O)[C@H](COP(=O)([O-])OCC[N+](C)(C)C)NC(=O)CC=CCCCCCCCCCCCCCCCCCCCC` [SM(42:2)], the “collision cross section (N2)” value amounted to 308.2 Å² in data set [3] ([M+Na]+), 305.54 Å² in data set [1] ([M+H]+), 304.2 Å² in data set [2] ([M+H]+) and 304.4 Å² in data set [2] ([M+Na]+).
As for `CCCCCCCC/C=C\CCCCCCCC(=O)OC[C@@H](COC(=O)CCCCCCCCCCC)OC(=O)CCCCCCCCCCC` [TG(42:1)], the “collision cross section (N2)” value was 289.72 Å² and 292.07 Å² and 292.03 Å² in data set [1] ([M+NH4]+); 288.53 Å² and 291.03 Å² in data set [1] ([M+Na]+); 288.5 Å² in data set [2] ([M+NH4]+).
As to `CCCCCCC/C=C\CCCCCCCC(=O)OC[C@@H](COC(=O)CCCCCCCCCCC)OC(=O)CCCCCCC/C=C\CCCCCCC` [TG(46:2)], the “collision cross section (N2)” value in data set [1] ([M+NH4]+) is 300.67 Å² and 303.01 Å²; in data set [1] ([M+Na]+) it was 299.74 Å² and 302.02 Å²; in data set [2] ([M+NH4]+), 300.4 Å².
Consider `CCCCCCCCCC/C=C\CCCCCCCCCC(=O)OC[C@@H](COC(=O)CCCCCCCCCCCC)OC(=O)CCCCCCCCCCCC` [TG(48:1)], for which the “collision cross section (N2)” value in data set [1] ([M+Na]+) was 308.88 Å² and 310.77 Å²; in data set [2] ([M+NH4]+), 310.9 Å².
Regarding `CCCCC/C=C\CCCCCCCC(=O)OC[C@H](COC(=O)CCCCCCC/C=C\CCCCCCCCC)OC(=O)CCCCCCC/C=C\CCCCC` [TG(49:3)], the “collision cross section (N2)” value in data set [1] ([M+NH4]+) is 308.33 Å² and 309.79 Å² and 313.23 Å²; in data set [1] ([M+Na]+), 308.93 Å²; in data set [2] ([M+NH4]+), 307.8 Å².
Turning to `CCCCCCCCCCCCCCCCCCCC(=O)OC[C@@H](COC(=O)CCCCCCCCCCC)OC(=O)CCCCCCCCCCCCCCCCCCC` [TG(52:0)], the “collision cross section (N2)” value in data set [1] ([M+NH4]+) is 323.2 Å² and 325.31 Å²; in data set [1] ([M+Na]+) it was 323.38 Å²; in data set [2] ([M+NH4]+), 323.4 Å².
With `CCCC/C=C\CCCCCCCC(=O)OC[C@H](COC(=O)CCCCCCC/C=C\CCCCCCCCC)OC(=O)CCCCCCC/C=C\CCCCCCCCC` [TG(52:3)], the “collision cross section (N2)” value in data set [1] ([M+NH4]+) is 318.16 Å² and 320.59 Å² and 322.8 Å²; in data set [1] ([M+Na]+) it was 317.01 Å² and 319.26 Å²; in data set [2] ([M+NH4]+) it was 320.2 Å².
For the compound `CCCCCCCC/C=C\CCCCCCCCCC(=O)OC[C@@H](COC(=O)CCCCCCCCCCCC)OC(=O)CCCCCCCCC/C=C\CCCCCCCC` [TG(53:2)], the “collision cross section (N2)” value is 321.52 Å² and 323.87 Å² in data set [1] ([M+Na]+); 323.6 Å² in data set [2] ([M+NH4]+).
On to `CCCCC/C=C\C/C=C\C/C=C\C/C=C\CCCCCC(=O)OC[C@@H](COC(=O)CCCCCCCCCCCCC)OC(=O)CCCCCCC/C=C\CCCCCCC` [TG(53:5)], for which the “collision cross section (N2)” value in data set [1] ([M+NH4]+) is 317.8 Å² and 320.46 Å² and 322.68 Å²; in data set [2] ([M+NH4]+), 317.4 Å².
With `CCCC/C=C\CCCCCCCC(=O)OC[C@H](COC(=O)CCCCCCCCCCCCCCCCCCC)OC(=O)CCCCCCCCCCCCCCCCCCC` [TG(54:1)], the “collision cross section (N2)” value in data set [1] ([M+Na]+) is 325.86 Å² and 328.61 Å²; in data set [2] ([M+NH4]+), 328.4 Å².
Take `CCCC/C=C\CCCCCCCC(=O)OC[C@H](COC(=O)CCCCCCCCC/C=C\CCCCCCCC)OC(=O)CCCCCCCCC/C=C\CCCCCCCC` [TG(54:3)]: the “collision cross section (N2)” value in data set [1] ([M+NH4]+) is 324.13 Å² and 326.41 Å² and 329.85 Å²; in data set [1] ([M+Na]+), 322.77 Å² and 324.86 Å²; in data set [2] ([M+NH4]+), 326.5 Å².
As for `CC/C=C\C/C=C\C/C=C\C/C=C\CCCCC(=O)O[C@H](COC(=O)CCCCCCC/C=C\CCCCCCC)COC(=O)CCCCCCC/C=C\CCCCCCCCC` [TG(54:6)], the “collision cross section (N2)” value is 316.05 Å² and 318.28 Å² in data set [1] ([M+Na]+); 319.9 Å² in data set [2] ([M+NH4]+).
As to `CCCCC/C=C\CCCCCCCC(=O)OC[C@H](COC(=O)CCCCCCCCC/C=C\CCCCCCCC)OC(=O)CCCCCCCCC/C=C\CCCCCCCC` [TG(55:3)], the “collision cross section (N2)” value in data set [1] ([M+NH4]+) was 330.49 Å² and 333.23 Å² and 328.28 Å²; in data set [2] ([M+NH4]+) it was 327.5 Å².
As for `CCCCC/C=C\C/C=C\C/C=C\C/C=C\CCCCCC(=O)OC[C@@H](COC(=O)CCCCCCCCCCC)OC(=O)CCCCCCCCCCCCCCCCCCCC` [TG(55:4)], the “collision cross section (N2)” value in data set [1] ([M+NH4]+) is 328.36 Å² and 330.81 Å² and 326.47 Å²; in data set [2] ([M+NH4]+), 326 Å².
Consider `CCCCCCCCCC/C=C\CCCCCCCCCC(=O)OC[C@@H](COC(=O)CCCCCCCCCCC)OC(=O)CCCCCCCCC/C=C\CCCCCCCCCC` [TG(56:2)], for which the “collision cross section (N2)” value in data set [1] ([M+Na]+) is 332.96 Å²; in data set [2] ([M+NH4]+), 332.8 Å².
Regarding `CC/C=C\C/C=C\C/C=C\C/C=C\C/C=C\CCCC(=O)OC[C@@H](COC(=O)CCCCCCCCCCCCCCCCC)OC(=O)CCCC/C=C\C/C=C\C/C=C\CCCCC` [TG(56:8)], the “collision cross section (N2)” value is 323.28 Å² and 324.75 Å² in data set [1] ([M+NH4]+); 325.6 Å² in data set [2] ([M+NH4]+).
`CC/C=C\C/C=C\C/C=C\CCCCCCCC(=O)O[C@@H](COC(=O)CCC/C=C\C/C=C\C/C=C\C/C=C\CCCCC)COC(=O)CCCCCCC/C=C\C/C=C\CCCCC` [TG(56:9)]: the “collision cross section (N2)” value in data set [1] ([M+NH4]+) is 321.77 Å².
The same measure, in the same setting: the result for `CCCCCCCCC/C=C\CCCCCCCC(=O)OC[C@@H](COC(=O)CCCCCCCCCCCCCCCCCC)OC(=O)CCCCCCCCCCCCCCCCCC` [TG(57:1)] reads 340.07 Å² and 342.55 Å².
On the same count and under the same terms, for `CCCC/C=C\CCCCCCCC(=O)OC[C@H](COC(=O)CCCCCCCCCCCCCCCCCCCCC)OC(=O)CCCCCCCCCCCCCCCCCCCCC` [TG(58:1)] the value was 342.62 Å² and 345.63 Å² and 341.8 Å².
On to `CCCCC/C=C\C/C=C\C/C=C\CCCCCCC(=O)O[C@H](COC(=O)CCCCCCCCCCCCCCC)COC(=O)CCCCCCCCCCCCCCCCCCCCC` [TG(58:3)], for which the “collision cross section (N2)” value in data set [1] ([M+NH4]+) is 339.23 Å² and 342.34 Å² and 337.3 Å²; in data set [2] ([M+NH4]+) it was 336.8 Å².
Take `CCCCC/C=C\C/C=C\C/C=C\CCCCCCCCC(=O)OC[C@@H](COC(=O)CCCCCCC/C=C\CCCCCCC)OC(=O)CCCCCCCCCCCCCCCCCC` [TG(58:4)]: the “collision cross section (N2)” value was 340.43 Å² and 336.2 Å² in data set [1] ([M+NH4]+); 336.6 Å² in data set [2] ([M+NH4]+).
Regarding `CC/C=C\C/C=C\C/C=C\C/C=C\C/C=C\CCCCCC(=O)OC[C@@H](COC(=O)CCCCCCC/C=C\CCCCCC)OC(=O)CCCCCC/C=C\C/C=C\C/C=C\CCCCC` [TG(58:9)], the “collision cross section (N2)” value is 328.42 Å² and 327.73 Å² in data set [1] ([M+NH4]+); 329.2 Å² in data set [1] ([M+Na]+); 330 Å² in data set [2] ([M+NH4]+).
Regarding `CC/C=C\C/C=C\C/C=C\C/C=C\C/C=C\CCCCCC(=O)OC[C@@H](COC(=O)CCCCCCCCCCCCCCC)OC(=O)CCC/C=C\C/C=C\C/C=C\C/C=C\C/C=C\CC` [TG(58:10)], the “collision cross section (N2)” value was 327.44 Å² in data set [1] ([M+NH4]+) and 327.2 Å² in data set [2] ([M+NH4]+).
For `CCCCC/C=C\C/C=C\C/C=C\CCCCCCCCC(=O)OC[C@@H](COC(=O)CCCCCCCCCCCCCCCCC)OC(=O)CCCCCCC/C=C\CCCCCCCCC` [TG(59:4)], the “collision cross section (N2)” value in data set [1] ([M+NH4]+) is 340.53 Å² and 343 Å².
On the same count and under the same terms, for `CCCCC/C=C\C/C=C\C/C=C\C/C=C\CCCC(=O)O[C@@H](COC(=O)CCCCCCCCCCC/C=C\C/C=C\CCCCC)COC(=O)CCCCCCCCCCCCCCCC` [TG(59:6)] the value was 339.13 Å².
In the case of `CCCCC/C=C\C/C=C\C/C=C\CCCCCCCCC(=O)OC[C@@H](COC(=O)CCCCCCCCCCCCCCCCC)OC(=O)CCCCCCCCC/C=C\C/C=C\CCCCC` [TG(60:5)], the results for the “collision cross section (N2)” value in data set [1] ([M+NH4]+) and in data set [2] ([M+NH4]+) were 344.42 Å² and 339.4 Å², respectively.

The record behind these values is the C3SDB collision cross section collection.
